Experiments:
[1] = system: NG108-15 cells (endogenous glutamate receptor); assay: Intracellular potential recording of cultured nerve cells with C-M magnet electrode (glutamate response); format: cell-based; details: final external fluid concentration 800 μM
Method: NG108-15 cells were used for the purpose of showing that recording is possible from cultured nerve cells. NG108-15 cells (neuroblastoma-glioma hybrid cells) were cultured in a culture medium containing DMEM (Sigma-Aldrich), HAT supplement (Thermofisher) and 10% FBS (Biowest). NG108-15 was seeded on a cover glass that was coated with 0.1% Polyethyleneimine (pH8.4, 150 mM Sodium Tetra-Borate (Wako)), and cultured in the culture medium, in which FBS concentration was reduced to 5% from the above culture medium, and the nerve differentiation was induced by adding 500 μM Ibuprofen (Wako). […]
PEI and PEG-gold coated magnetic nanoparticles were mixed and left at room temperature for 3 hours. This mixed solution is moved to the cell-adhesive surface of the neodymium magnet and left for additional 15 minutes to magnetically bond the gold nanoparticles to the neodymium magnet electrode.
The above nanoparticle-bonding magnet electrode was placed on the cultured cells placed on an iron plate. […]
In addition to the spontaneous action potential, the following experiment was conducted to confirm whether the neuronal activity by the neurotransmitter glutamate can be recorded. […] Glutamic acid was administered to the extracellular fluid (final external fluid concentration 800 μM), and the response mediated by glutamate receptors was recorded. […]

[2] = system: NG108-15 cells; assay: Intracellular potential recording in differentiated cultured nerve cells with MagEle not isolated from external fluid; format: cell-based; details: 3 mM; after 20 μM Veratridine
Method: In this experiment, the cultured nerve cells (NG108-15 cells) used in Example 3 were induced and differentiated into nerves under the same differentiation conditions as in the experiment example 3. In the same manner as in Example 3, the MagEle (magnet electrode) is moved from above the target cell toward the cell, and the conductive gold-coated magnetic nanoparticles adsorbed on the MagEle are adhered to the cell membrane to penetrate it. Then, the intracellular potential was measured by connecting the MagEle to the (+) pole and a conductor provided on an insulator (parafilm film) that completely covers the upper surface of the MagEle to the ground. At that time, although the insulator completely covered the top and sides of the (+) pole MagEle, the surface facing the cover glass, to which the cells adhere was not covered, and the cells were not isolated from the external fluid (FIG. 19).
The NG108-15 cells were differentiated by culturing for 3 weeks in DMEM/HAT medium containing 2% FBS supplemented with Forskolin (10 μM).

SMILES | time for glutamate-induced membrane potential change to return to baseline ([1]; decay due to desensitization) | membrane potential response mediated by glutamate receptors ([1]; neural differentiation induction for 2 days) | spontaneous action potential induced by Veratridine [2]
N[C@@H](CCC(=O)O)C(=O)O [Glutamate, Glutamic acid] | about 90 seconds | depolarization (upward change) response of the membrane potential | –
CCN(CC)CC(=O)Nc1c(C)cccc1C [Lidocaine] | – | – | suppressed

Reference: patent US12247972B2 (priority 2018, dated 2025)
